ChEMBL document CHEMBL3739374, “Synthesis and evaluation of anticancer activity of novel andrographolide derivatives” (Medchemcomm, 2015)
Values after ≈ are worked out from the molar mass of the structure shown.

Experiments:
HeLa = assay: Cytotoxicity against human HeLa cells by MTT assay; assay type: functional, cell-based
ACHN = assay: Cytotoxicity against human ACHN cells by MTT assay; assay type: functional, cell-based
A549 = assay: Cytotoxicity against human A549 cells by MTT assay; assay type: functional, cell-based
[1] = Cytotoxicity against rat IEC-6 cells by MTT assay; assay type: cell-based
B16 = assay: Cytotoxicity against mouse B16 cells by MTT assay; assay type: functional, cell-based

Compound | IC50 (HeLa) [µg/mL] | IC50 (ACHN) [µg/mL] | IC50 (A549) [µg/mL] | IC50 [1] [µg/mL] | IC50 (B16) [µg/mL]
C=C1CC[C@@H]2[C@](C)(CO)[C@H](O)CC[C@@]2(C)[C@@H]1/C=C/C1=CCOC1=O | 149 (≈ 448 µM) | 328 (≈ 986 µM) | 117 (≈ 353 µM) | 169 (≈ 509 µM) | 25.2 (≈ 75.7 µM)
C=C1CC[C@@H]2[C@]3(C)CO[C@@H](c4ccccc4)O[C@@H]3CC[C@@]2(C)[C@@H]1C/C=C1/C(=O)OC[C@H]1O | 3.8 (≈ 8.66 µM) | 4.78 (≈ 10.9 µM) | 4.07 (≈ 9.28 µM) | 19.2 (≈ 43.8 µM) | 9.54 (≈ 21.8 µM)
C[C@@H]1OC[C@@]2(C)[C@H]3CC[C@@]4(CO4)[C@@H](/C=C/C4=CCOC4=O)[C@]3(C)CC[C@H]2O1 | 7.78 (≈ 20.8 µM) | 57.3 (≈ 153 µM) | 18.2 (≈ 48.6 µM) | 35.1 (≈ 93.6 µM) | 44.1 (≈ 118 µM)
C=C1CC[C@@H]2[C@]3(C)CO[C@@H](CCCCC)O[C@@H]3CC[C@@]2(C)[C@@H]1C/C=C1/C(=O)OC[C@H]1O | 8.51 (≈ 19.7 µM) | 9.54 (≈ 22.1 µM) | 7.07 (≈ 16.3 µM) | 22.4 (≈ 51.7 µM) | 10 (≈ 23.1 µM)
C=C1CC[C@@H]2[C@]3(C)CO[C@@H](C)O[C@@H]3CC[C@@]2(C)[C@@H]1C/C=C1/C(=O)OC[C@H]1O | 4.27 (≈ 11.3 µM) | 2.47 (≈ 6.56 µM) | 2.43 (≈ 6.45 µM) | 6.34 (≈ 16.8 µM) | 4.78 (≈ 12.7 µM)
C=C1CC[C@@H]2[C@]3(C)CO[C@@H](C)O[C@@H]3CC[C@@]2(C)[C@@H]1/C=C/C1=CCOC1=O | 56.2 (≈ 157 µM) | 125 (≈ 349 µM) | 88.7 (≈ 247 µM) | 94.3 (≈ 263 µM) | 62 (≈ 173 µM)
C=C1CC[C@@H]2[C@]3(C)CO[C@@H](C)O[C@@H]3CC[C@@]2(C)[C@@H]1C/C=C1\C=COC1=O | 48.6 (≈ 135 µM) | 60.6 (≈ 169 µM) | 46.9 (≈ 131 µM) | 40 (≈ 112 µM) | 43 (≈ 120 µM)
C=C1CC[C@@H]2[C@]3(C)CO[C@@H](CCC)O[C@@H]3CC[C@@]2(C)[C@@H]1C/C=C1/C(=O)OC[C@H]1O | 27 (≈ 66.8 µM) | 32.9 (≈ 81.4 µM) | 23 (≈ 56.8 µM) | 14.1 (≈ 35 µM) | 44.4 (≈ 110 µM)
C=C1CC[C@@H]2[C@]3(C)CO[C@@H](C)O[C@@H]3CC[C@@]2(C)[C@@H]1C/C=C1/C(=O)OC[C@H]1OC(C)=O | 4.43 (≈ 10.6 µM) | 8.54 (≈ 20.4 µM) | 3.34 (≈ 7.98 µM) | 7.23 (≈ 17.3 µM) | 4.01 (≈ 9.58 µM)
CC(=O)O[C@@H]1COC(=O)/C1=C/C[C@@H]1[C@@]2(CC[C@@H]3[C@]4(C)CO[C@@H](C)O[C@@H]4CC[C@]31C)CO2 | 7.12 (≈ 16.4 µM) | 5.58 (≈ 12.8 µM) | 4.37 (≈ 10.1 µM) | 14.5 (≈ 33.4 µM) | 6.98 (≈ 16.1 µM)
C[C@@H]1OC[C@@]2(C)[C@H]3CC[C@@]4(CO4)[C@@H](C/C=C4/C(=O)OC[C@H]4O)[C@]3(C)CC[C@H]2O1 | 6.97 (≈ 17.8 µM) | 4.49 (≈ 11.4 µM) | 4.34 (≈ 11.1 µM) | 8.76 (≈ 22.3 µM) | 6.34 (≈ 16.2 µM)
C=C1CC[C@@H]2[C@]3(C)CO[C@@H](CC)O[C@@H]3CC[C@@]2(C)[C@@H]1C/C=C1/C(=O)OC[C@H]1O | 8.91 (≈ 22.8 µM) | 14.7 (≈ 37.6 µM) | 8.12 (≈ 20.8 µM) | 14.2 (≈ 36.4 µM) | 10.2 (≈ 26.2 µM)
C=C1CC[C@@H]2[C@]3(C)CO[C@@H](CCCC)O[C@@H]3CC[C@@]2(C)[C@@H]1C/C=C1/C(=O)OC[C@H]1O | 14.1 (≈ 33.6 µM) | 15.3 (≈ 36.7 µM) | 33.5 (≈ 80.1 µM) | 31.2 (≈ 74.6 µM) | 21.1 (≈ 50.4 µM)
C=C1CC[C@@H]2[C@](C)(CO)[C@H](O)CC[C@@]2(C)[C@@H]1C/C=C1/C(=O)OC[C@H]1O [ANDROGRAPHOLIDE] | 10.4 (≈ 29.7 µM) | 3.03 (≈ 8.65 µM) | 9.71 (≈ 27.7 µM) | 8.26 (≈ 23.6 µM) | 7.54 (≈ 21.5 µM)
COc1cccc2c1C(=O)c1c(O)c3c(c(O)c1C2=O)C[C@@](O)(C(=O)CO)C[C@@H]3O[C@H]1C[C@H](N)[C@H](O)[C@H](C)O1 [DOXORUBICIN] | 1.28 (≈ 2.35 µM) | 2.08 (≈ 3.83 µM) | – | 2.6 (≈ 4.78 µM) | 3.16 (≈ 5.81 µM)
